Assay results as given in patent US6380196B1, “Dihydrobenzofurans” (Byk Gulden Lomberg Chemische Fabrik GmbH, priority 1997, dated 2002).
Where a name gives a salt, the structure may show the parent alone.

test system: PDE4; experiment: Inhibition of PDE 4 activity (method of Bauer and Schwabe, adapted to microtitre plates); format: biochemical
Procedure: The activity test was carried out according to the method of Bauer and Schwabe, which was adapted to microtitre plates (Naunyn-Schmiederberg's Arch. Pharmacol. 311, 193-198, 1980). In this test, the PDE reaction is carried out in the first step. In a second step, the resultant 5′-nucleotide is cleaved to the uncharged nucleoside by a snake venom 5′-nucleotidase from Crotalus Atrox. In the third step, the nucleoside is separated from the remaining charged substrate on ion exchange columns. The columns are eluted directly into minivials using 2 ml of 30 mM ammonium formate (pH 6.0), to which a further 2 ml of scintillation fluid is added for counting.
The inhibitory values determined for the compounds according to the invention follow from the following table A, in which the numbers of the compounds correspond to the numbers of the examples.

Compound	Inhibition of PDE4 activity [measured as -loglC50 (mol/l)]
COc1ccc(C2=NN(C3CCCCCC3)C(=O)[C@H]3CC=CC[C@@H]23)c2c1OC(C)(C)C2 (relative stereo) [Compound 25, (cis)-4-(2,3-Dihydro-2,2-dimethyl-7-methoxybenzofuran-4-yl)-2-cycloheptyl-4a,5,8,8a-tetrahydro-2H-phthalazin-1-one]	9.01
COc1ccc(C2=NN(c3ccccc3)C(=O)[C@H]3CC=CC[C@@H]23)c2c1OC(C)(C)C2 (relative stereo) [Compound 27, (cis)-4-(2,3-Dihydro-2,2-dimethyl-7-methoxybenzofuran-4-yl)-2-phenyl-4a,5,8,8a-tetrahydro-2H-phthalazin-1-one]	8.74
COc1ccc(C2=NNC(=O)C3CC=CCC23)c2c1OC1(CCCC1)C2 (stereo not drawn) [Compound 1, (cis)-4-(2,3-Dihydro-7-methoxybenzofuran-2-spiro-1′-cyclopentan-4-yl)-4a,5,8,8a-tetrahydro-2H-phthalazin-1-one]	8.02
COc1ccc(C2=NN(C3CCCC3)C(=O)C3CC=CCC23)c2c1OC1(CCCC1)C2 (stereo not drawn) [Compound 5, (cis)-4-(2,3-Dihydro-7-methoxybenzofuran-2-spiro-1′-cyclopentane-4-yl)-2-cyclopentyl-4a,5,8,8a-tetrahydro-2H-phthalazin-1-one]	9.22
COc1ccc(C2=NN(C3CCCCCC3)C(=O)C3CC=CCC23)c2c1OC1(CCCC1)C2 (stereo not drawn) [Compound 6, (cis)-4-(2,3-Dihydro-7-methoxybenzofuran-2-spiro-1′-cyclopentan-4-yl)-2-cycloheptyl-4a,5,8,8a-tetrahydro-2H-phthalazin-1-one]	9.17
COc1ccc(C2=NN(Cc3ccccc3)C(=O)C3CC=CCC23)c2c1OC1(CCCC1)C2 (stereo not drawn) [Compound 7, (cis)-4-(2,3-Dihydro-7-methoxybenzofuran-2-spiro-1′-cyclopentan-4-yl)-2-benzyl-4a,5,8,8a-tetrahydro-2H-phthalazin-1-one]	8.93
COc1ccc(C2=NN(c3ccccc3)C(=O)C3CC=CCC23)c2c1OC1(CCCC1)C2 (stereo not drawn) [Compound 8, (cis)-4-(2.3-Dihydro-7-methoxybenzofuran-2-spiro-1′-cyclopentan-4-yl)-2-phenyl-4a,5,8,8a-tetrahydro-2H-phthalazin-1-one]	8.87
COc1ccc(C2=NNC(=O)C3CCCCC23)c2c1OC1(CCCC1)C2 [Compound 9, (4aS, 8aR)-4-(2,3-Dihydro-7-methoxybenzofuran-2-spiro-1′-cyclopentan-4-yl)-4a,5,6,7,8,8a-hexahydro-2H-phthalazin-1-one]	7.80
COc1ccc(C2=NN(Cc3ccc(C(=O)O)cc3)C(=O)C3CCCCC23)c2c1OC1(CCCC1)C2 (stereo not drawn) [Compound 11, (cis)-4-(2,3-Dihydro-7-methoxybenzofuran-2-spiro-1′-cyclopentan-4-yl)-2-(4-carboxybenzyl)-4a,5,6,7,8,8a-hexahydro-2H-phthalazin-1-one]	7.66
COc1ccc(C2=NN(Cc3ccncc3)C(=O)C3CCCCC23)c2c1OC1(CCCC1)C2 (stereo not drawn) [Compound 12, (cis)-4-(2,3-Dihydro-7-methoxybenzofuran-2-spiro-1′-cyclopentan-4-yl)-2-(4-pyridylmethyl)-4a,5,6,7,8,8a-hexahydro-2H-phthalazin-1-one-hydrochloride]	8.22
COc1ccc(C2=NN(C3CCCCCC3)C(=O)C3CCCCC23)c2c1OC1(CCCC1)C2 (stereo not drawn) [Compound 13, (cis)-4-(2,3-Dihydro-7-methoxybenzofuran-2-spiro-1′-cyclopentan-4-yl)-2-cycloheptyl-4a,5,6,7,8,8a-hexahydro-2H-phthalazin-1-one]	9.22
COc1ccc(C2=NN(Cc3ccccc3)C(=O)C3CCCCC23)c2c1OC1(CCCC1)C2 (stereo not drawn) [Compound 14, (cis)-4-(2,3-Dihydro-7-methoxybenzofuran-2-spiro-1′-cyclopentan-4-yl)-2-benzyl-4a,5,6,7,8,8a-hexahydro-2H-phthalazin-1-one]	8.62
COc1ccc(C2=NN(CCO)C(=O)C3CC=CCC23)c2c1OC1(CCCC1)C2 (stereo not drawn) [Compound 17, (cis)-4-(2,3-Dihydro-7-methoxybenzofuran-2-spiro-1′-cyclopentan-4-yl-2-hydroxyethyl-4a,5,8,8a-tetrahydro-2H-phthalazin-1-one]	8.36
COc1ccc(C2=NN(CCCCn3ccnc3)C(=O)C3CC=CCC23)c2c1OC1(CCCC1)C2 (stereo not drawn) [Compound 22, (cis)-4(2,3-Dihydro-7-methoxybenzofuran-2-spiro-1′-cylopentan-4-yl)-2-[4-(imidazol-1yl)-1-butyl]-4a,5,8,8a-tetrahydro-phthalazin-1-one]	8.82
COc1ccc(C2=NN(c3ccc(C(=O)O)cc3)C(=O)C3CC=CCC23)c2c1OC1(CCCC1)C2 (stereo not drawn) [Compound 24, (cis)-4-(2,3-Dihydro-7-methoxybenzofuran-2-spiro-1′-cyclopentan-4-yl)-2-(p-carboxyphenyl)-4a,5,8,8a-tetrahydro-2H-phthalazin-1-one]	9.38
COc1ccc(C2=NN(Cc3ccccc3)C(=O)C3CC=CCC23)c2c1OC(C)(C)C2 (stereo not drawn) [Compound 26, (cis)-4-2,3-Dihydro-2,2-dimethyl-7-methoxybenzofuran-4-yl)-2-benzyl-4a,5,8,8a-tetrahydro-2H-phthalazin-1-one]	8.72

test system: not given; experiment: not given

Compound	melting point [°C]
COc1ccc(C2=NNC(=O)[C@H]3CC=CC[C@@H]23)c2c1OC(C)(C)C2 (relative stereo)	242
